This note sets out measurements from patent US11780845B2 (Relay Therapeutics, Inc., priority 2019, dated 2023).

The target of one assay is FGFR2 (Homo sapiens (Human), UniProt P21802). Put plainly: Biochemical FGFR2 Caliper assay.
A further assay deals with SNU-16. Put plainly: Cell SNU-16 assay. Format: cell-based.
Setting [1] is: Homo sapiens, SNU-16, SNU-16 cells.

Chain of FGFR2 (P21802 22-821): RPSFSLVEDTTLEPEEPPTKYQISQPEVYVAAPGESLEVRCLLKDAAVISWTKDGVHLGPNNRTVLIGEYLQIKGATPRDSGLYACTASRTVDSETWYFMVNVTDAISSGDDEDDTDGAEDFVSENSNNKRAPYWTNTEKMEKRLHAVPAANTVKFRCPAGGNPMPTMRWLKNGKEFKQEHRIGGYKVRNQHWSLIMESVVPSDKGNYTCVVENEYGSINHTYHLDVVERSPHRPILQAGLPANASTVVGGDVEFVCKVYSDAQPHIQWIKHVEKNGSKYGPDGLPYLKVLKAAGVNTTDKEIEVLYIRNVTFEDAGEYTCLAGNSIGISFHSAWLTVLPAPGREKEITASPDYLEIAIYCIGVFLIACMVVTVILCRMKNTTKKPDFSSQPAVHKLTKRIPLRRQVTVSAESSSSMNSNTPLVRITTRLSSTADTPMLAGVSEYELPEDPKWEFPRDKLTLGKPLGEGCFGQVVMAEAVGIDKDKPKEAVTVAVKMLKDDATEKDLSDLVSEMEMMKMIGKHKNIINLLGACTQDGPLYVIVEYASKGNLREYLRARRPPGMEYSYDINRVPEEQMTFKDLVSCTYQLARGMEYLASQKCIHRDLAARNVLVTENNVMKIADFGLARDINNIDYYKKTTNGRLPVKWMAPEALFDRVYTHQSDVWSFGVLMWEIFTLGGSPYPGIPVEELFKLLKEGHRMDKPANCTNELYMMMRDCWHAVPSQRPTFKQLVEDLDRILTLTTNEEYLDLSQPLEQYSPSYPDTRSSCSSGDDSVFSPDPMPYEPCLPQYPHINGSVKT

As to `C#Cc1cc(C)c(-c2c(C3=CC[C@H](C(=O)N4CCC[C@H]4C)CC3)c3c(N)ncnc3n2C)c(F)n1` (atropisomer, axis not shown) [Example 1348], the half-maximal inhibitory concentration (IC50) against FGFR2 was 100 to 250 nM; with SNU-16 (SNU-16 cells), ≤ 100 nM.
`C#Cc1cc(C)c(-c2c(-c3ccc(Oc4nccc(C)n4)c(F)c3)c3c(N)ncnc3n2[C@H]2C[C@H](O)C2)cn1` (atropisomer, axis not shown) [Example 1357]: the half-inhibitory concentration (IC50) at FGFR2 was < 100 nM; in the assay with SNU-16 (setting [1]), ≤ 100 nM.
Take `C#Cc1cc(OC)c(-c2c(-c3ccc(Oc4nccc(C)n4)c(F)c3)c3c(C)ncnc3n2C)c(C)n1` (atropisomer, axis not shown) [Example 1446]: the values for the IC50 on FGFR2 and in the assay with SNU-16 (SNU-16 cells) were < 100 nM and ≤ 100 nM, respectively.
In the case of `C#Cc1cc(C)c(-c2c(-c3ncc(Oc4nccc(C)n4)cc3F)c3c(N)ncnc3n2C)c(C)n1` (atropisomer, axis not shown) [Example 1453], the IC50 is < 100 nM on FGFR2 and ≤ 100 nM in the assay with SNU-16 (setting [1]).
Turning to `C#Cc1cc(OC)c(-c2c(-c3ccc(Oc4nccc(C)n4)c(F)c3)c3c(C)ncnc3n2C)c(C)n1` (atropisomer, axis not shown) [Example 1459], the half-inhibitory concentration (IC50) against FGFR2 is < 100 nM; in the assay on SNU-16 (SNU-16 cells), ≤ 100 nM.
As to `C#Cc1cc(OC)c(-c2c(-c3ccc(Oc4nccc(C)n4)c(F)c3)c3c(C)ncnc3n2C)c(C)n1` (atropisomer, axis not shown) [Example 1460], the IC50 at FGFR2 lay in the range of 1000 to 100000 nM; in the assay with SNU-16 (SNU-16 cells), 250 to 1000 nM.
Turning to `C#Cc1cc(C)c(-c2c(C3=CC[C@H](C(=O)N4CCC[C@H]4C#N)CC3)c3c(C)ncnc3n2C)c(C)n1` (atropisomer, axis not shown) [Example 1463], the IC50 was 100 to 250 nM against FGFR2 and ≤ 100 nM with SNU-16 (setting [1]).
As for `C#Cc1cc(C)c(-c2c(C3=CC[C@@H](C(=O)N4CCC[C@H]4C#N)CC3)c3c(C)ncnc3n2C)c(C)n1` (atropisomer, axis not shown) [Example 1464], the IC50 against FGFR2 and in the assay on SNU-16 (SNU-16 cells) was 250 to 1000 nM throughout.
As to `C#Cc1cc(C)c(-c2c(C3=CC[C@H](C(=O)N4CCC[C@H]4C#N)CC3)c3c(C)ncnc3n2C)c(C)n1` (atropisomer, axis not shown) [Example 1465], the IC50 was < 100 nM on FGFR2 and ≤ 100 nM in the assay with SNU-16 (SNU-16 cells).
Turning to `C#Cc1cc(C)c(-c2c(C3=CC[C@@H](C(=O)N4CCC[C@H]4C#N)CC3)c3c(C)ncnc3n2C)c(C)n1` (atropisomer, axis not shown) [Example 1466], the concentration for half-maximal inhibition (IC50) at FGFR2 and in the assay on SNU-16 (SNU-16 cells) was 100 to 250 nM throughout.
Turning to `C#Cc1cc(C)c(-c2c(C3=CC[C@H](C(=O)N4CCC[C@H]4C#N)CC3)c3c(N)ncnc3n2C)c(C)n1` (atropisomer, axis not shown) [Example 1469], the IC50 on FGFR2 is < 100 nM; with SNU-16 (setting [1]) it was ≤ 100 nM.
On the same counts, the results for `C#Cc1cc(C)c(-c2c(C3=CC[C@@H](C(=O)N4CCC[C@H]4C#N)CC3)c3c(N)ncnc3n2C)c(C)n1` (atropisomer, axis not shown) [Example 1471] are < 100 nM and ≤ 100 nM.
Consider `Cn1c([C@@H]2CCN(C#N)C2)c(-c2ccc(C(=O)N3CCCC3)cc2)c2c(N)ncnc21` (single isomer, unassigned) [Example 860], for which the IC50 is < 100 nM against FGFR2 and 250 to 1000 nM in the assay with SNU-16 (setting [1]).
With `Cn1c([C@H]2CCN(C#N)C2)c(-c2ccc(C(=O)N3CCCC3)cc2)c2c(N)ncnc21` (single isomer, unassigned) [Example 861], the IC50 against FGFR2 and with SNU-16 (setting [1]) was 1000 to 100000 nM each time.
As for `C=CS(=O)(=O)N1CC[C@H](c2c(-c3ccc(C(=O)N4CCCC4)cc3)c3c(N)ncnc3n2C)C1` (single isomer, unassigned) [Example 863], the IC50 at FGFR2 is 250 to 1000 nM; with SNU-16 (setting [1]), 100 to 250 nM.
In the same order, the values of `C=CS(=O)(=O)N1CC[C@@H](c2c(-c3ccc(C(=O)N4CCCC4)cc3)c3c(N)ncnc3n2C)C1` (single isomer, unassigned) [Example 864] are < 100 nM and 100 to 250 nM.
With `C=C(C)C(=O)Nc1ccc(-c2nn3ccnc(N)c3c2C2=CC[C@@H](C(=O)N3CCCC3)CC2)cc1` (single isomer, unassigned) [Example 867], the IC50 on FGFR2 was < 100 nM; in the assay with SNU-16 (setting [1]), ≤ 100 nM.
With `C=C(C)C(=O)Nc1ccc(-c2nn3ccnc(N)c3c2C2=CC[C@H](C(=O)N3CCCC3)CC2)cc1` (single isomer, unassigned) [Example 869], the IC50 is 1000 to 100000 nM against FGFR2 and 250 to 1000 nM with SNU-16 (setting [1]).
With `C=CC(=O)N1CC=C(c2c(C3=CC[C@H](C(=O)N4CCCC4)CC3)c3c(N)ncnc3n2C)C1` (single isomer, unassigned) [Example 871], the IC50 against FGFR2 and in the assay on SNU-16 (setting [1]) was 250 to 1000 nM each time.
For `C=CC(=O)N1CC=C(c2c(C3=CC[C@@H](C(=O)N4CCCC4)CC3)c3c(N)ncnc3n2C)C1` (single isomer, unassigned) [Example 872], the IC50 against FGFR2 and with SNU-16 (setting [1]) was 100 to 250 nM in each case.
As to `C=CC(=O)N1CC[C@H](c2c(C3=CC[C@H](C(=O)N4CCCC4)CC3)c3c(N)ncnc3n2C)C1` (single isomer, unassigned) [Example 873], the figures for the IC50 against FGFR2 and with SNU-16 (setting [1]) were 1000 to 100000 nM and 250 to 1000 nM, respectively.
For `C=CC(=O)N1CC[C@H](c2c(C3=CC[C@@H](C(=O)N4CCCC4)CC3)c3c(N)ncnc3n2C)C1` (single isomer, unassigned) [Example 874], the IC50 on FGFR2 lay within 250 to 1000 nM; in the assay on SNU-16 (setting [1]), 100 to 250 nM.
`Cc1ccnc(Oc2ccc(-c3c([C@@H]4CCN(C(=O)CCl)C4)n(C)c4ncnc(N)c34)cc2)n1` (single isomer, unassigned) [Example 875]: the IC50 against FGFR2 and in the assay on SNU-16 (setting [1]) was 250 to 1000 nM in each case.
For `Cc1ccnc(Oc2ccc(-c3c([C@H]4CCN(C(=O)CCl)C4)n(C)c4ncnc(N)c34)cc2)n1` (single isomer, unassigned) [Example 876], the figures for the 50% inhibitory concentration (IC50) against FGFR2 and with SNU-16 (setting [1]) were < 100 nM and ≤ 100 nM, respectively.
On to `C=C(C)C(=O)Nc1ccc(-c2c(C3=C(F)C[C@@H](C(=O)N4CCCC4)CC3)c3c(N)ncnc3n2C)cc1` (single isomer, unassigned) [Example 883], for which the IC50 at FGFR2 and with SNU-16 (setting [1]) was 1000 to 100000 nM each time.
For `C=CC(=O)N1C[C@@H](c2c(-c3ccc(C(=O)N4CCCCC4)cc3)c3c(N)ncnc3n2C)C[C@@H]1C` (single isomer, unassigned) [Example 884], the results for the IC50 at FGFR2 and in the assay with SNU-16 (setting [1]) were 1000 to 100000 nM and 100 to 250 nM, respectively.
On to `C=CC(=O)N1CC[C@@H](c2c(C3=CC[C@H](C(=O)N4CCCC4)CC3)c3c(N)ncnc3n2C)C1` (single isomer, unassigned) [Example 887], for which the IC50 against FGFR2 and in the assay on SNU-16 (setting [1]) was 1000 to 100000 nM in each case.
As for `C=CC(=O)N1C[C@H](c2c(-c3ccc(C(=O)N4CCCCC4)cc3)c3c(N)ncnc3n2C)C[C@@H]1C` (single isomer, unassigned) [Example 888], the IC50 against FGFR2 and with SNU-16 (setting [1]) was 1000 to 100000 nM each time.
`C=C(C)C(=O)Nc1ccc(-c2c(C3=CC[C@@H](C(=O)N4CCC5(CC5)C4)CC3)c3c(N)ncnc3n2C)cc1` (single isomer, unassigned) [Example 891]: the half-inhibitory concentration (IC50) on FGFR2 and in the assay on SNU-16 (setting [1]) was 1000 to 100000 nM throughout.
As for `C=C(C)C(=O)Nc1ccc(-c2c(C3=CC[C@H](C(=O)N4CCC5(CC5)C4)CC3)c3c(N)ncnc3n2C)cc1` (single isomer, unassigned) [Example 892], the IC50 was 100 to 250 nM against FGFR2 and ≤ 100 nM in the assay with SNU-16 (setting [1]).
`C=C(C)C(=O)Nc1ccc(-c2c(-c3ccc4c(c3)CO[C@@H]4c3cccc(C)n3)c3c(N)ncnc3n2C)cc1` (single isomer, unassigned) [Example 894]: the IC50 against FGFR2 and in the assay with SNU-16 (setting [1]) was 250 to 1000 nM throughout.
As for `C=C(C)C(=O)Nc1ccc(-c2c(-c3ccc4c(c3)CO[C@H]4c3cccc(C)n3)c3c(N)ncnc3n2C)cc1` (single isomer, unassigned) [Example 896], the IC50 is 100 to 250 nM against FGFR2 and 250 to 1000 nM in the assay with SNU-16 (setting [1]).
Take `Cn1c(-c2ccc(NC(=O)[C@@H]3CN3)cc2)c(-c2ccc(C(=O)N3CCCC3)cc2)c2c(N)ncnc21` (single isomer, unassigned) [Example 899]: the IC50 on FGFR2 and in the assay on SNU-16 (setting [1]) was 1000 to 100000 nM in each case.
`Cn1c(-c2ccc(NC(=O)[C@H]3CN3)cc2)c(-c2ccc(C(=O)N3CCCC3)cc2)c2c(N)ncnc21` (single isomer, unassigned) [Example 900]: the half-maximal inhibitory concentration (IC50) at FGFR2 and with SNU-16 (setting [1]) was 1000 to 100000 nM throughout.
For `Cn1c(-c2ccc(NC(=O)CCl)cc2)c(C2=CC[C@H](C(=O)N3CCCC3)CC2)c2c(N)ncnc21` (single isomer, unassigned) [Example 905], the IC50 at FGFR2 was 100 to 250 nM; in the assay on SNU-16 (setting [1]), ≤ 100 nM.
As for `C=CC(=O)Nc1ccc(-c2c(-c3ccc(Oc4nccc(C)n4)c(F)c3)c3c(C)ncnc3n2C)c(C)c1` [Example 1127], the concentration for half-maximal inhibition (IC50) in the assay with SNU-16 (SNU-16 cells) is ≤ 100 nM.
As for `C#Cc1ncc(-c2c(C3=CC[C@H](C(=O)N4CCCC4)CC3)c3c(C)ncnc3n2C)c(C)n1` [Example 1179], the IC50 in the assay on SNU-16 (SNU-16 cells) is ≤ 100 nM.
In the case of `C#Cc1cc(C)c(-c2c(-c3ccc(Oc4nccc(C)n4)c(F)c3)c3c(C)ncnc3n2C)c(C)n1` [Example 1409], the IC50 with SNU-16 (SNU-16 cells) was ≤ 100 nM.
On the same count and under the same terms, in the case of `C#Cc1cc(C)c(-c2c(-c3ccc(Oc4nccc(C)n4)c(F)c3)c3c(C)ncnc3n2C)c(C)n1` [Example 1410] it was ≤ 100 nM; in that of `C#Cc1cc(C)c(-c2c(-c3ccc(Oc4nccc(C)n4)c(F)c3)c3c(C)ncnc3n2C)c(F)n1` [Example 1414], ≤ 100 nM.
On the same count and under the same terms, then `C#Cc1cc(C)c(-c2c(-c3ccc(Oc4nccc(C)n4)c(F)c3)c3c(C)ncnc3n2C)c(F)n1` [Example 1415], with ≤ 100 nM; and `C#Cc1cc(OC)c(-c2c(C3=CC[C@H](C(=O)N4CCC[C@H]4C#N)CC3)c3c(C)ncnc3n2C)c(C)n1` [Example 1474], with ≤ 100 nM; and `C#Cc1cc(OC)c(-c2c(-c3ncc(Oc4nccc(C)n4)cc3F)c3c(N)ncnc3n2C)cn1` [Example 1489], with ≤ 100 nM.
For `C#Cc1cc2c(cn1)-c1c(-c3ccc(Oc4nccc(C)n4)c(F)c3)c3c(N)ncnc3n1CCO2` [Example 1494], the IC50 with SNU-16 (SNU-16 cells) is ≤ 100 nM.
